Where “and” joins values, the source holds several entries; their conditions need not be identical. Equal values may be shown once. Marks after values point to notes of the source that are not given here.
Key:
nucleus accumbens (NAc) = experiment: Brain activation: c-Fos positive cells in nucleus accumbens; format: in vivo, mice; conditions: VPA model, 1 hour after administration
Procedure: (§1) Saline or buprenorphine at 0.0003, 0.003, or 0.03 mg/kg was administered to the VPA model, and 1 hour after that, the brain was extracted and immunostained with an anti-c-Fos antibody, and the number of c-Fos positive cells in nucleus accumens (NAc) and medial prefrontal cortex, which are brain regions known to promote social behavior, and dorsomedial periaqueductal gray (dmPAG), which is a brain region known to reduce social behavior and to be involved in the expression of analgesic effects, was quantified as the number of activated nerve cells.

[1] = tested on: dorsomedial periaqueductal gray (dmPAG); experiment: Brain activation: c-Fos positive cells in dorsomedial periaqueductal gray; format: in vivo, mice; conditions: VPA model, 1 hour after administration
Procedure: as §1

[2] = Pharmacokinetic: drug concentrations in plasma by LC-MS after subcutaneous administration; conditions: for concentration at 0.5 h: Plasma concentration 0.5 hr; for concentration at 1 h: Plasma concentration 1 hr; for concentration at 3 h: Plasma concentration 3 hr; for concentration at 12 h: Plasma concentration 12 hr; for concentration at 24 h: Plasma concentration 24 hr
[3] = ICR mice, buprenorphine 0.1 μg/kg s.c., individual samples
[4] = ICR mice, buprenorphine 0.3 μg/kg s.c., individual samples
[5] = ICR mice, buprenorphine 3 μg/kg s.c., individual samples
[6] = ICR mice, buprenorphine 10 μg/kg s.c., individual samples
[7] = ICR mice, buprenorphine 30 μg/kg s.c., individual samples
[8] = ICR, mouse, plasma, sc, 0.1 μg/kg, ICR mice, buprenorphine 0.1 μg/kg s.c., Mean
[9] = ICR, mouse, plasma, sc, 0.1 μg/kg, ICR mice, buprenorphine 0.1 μg/kg s.c., individual samples
[10] = ICR, mouse, plasma, sc, 0.3 μg/kg, ICR mice, buprenorphine 0.3 μg/kg s.c., Mean
[11] = ICR, mouse, plasma, sc, 0.3 μg/kg, ICR mice, buprenorphine 0.3 μg/kg s.c., individual samples
[12] = ICR, mouse, plasma, sc, 1 μg/kg, ICR mice, buprenorphine 1 μg/kg s.c., Measured value
[13] = ICR, mouse, plasma, sc, 3 μg/kg, ICR mice, buprenorphine 3 μg/kg s.c., Mean
[14] = ICR, mouse, plasma, sc, 3 μg/kg, ICR mice, buprenorphine 3 μg/kg s.c., individual samples
[15] = ICR, mouse, plasma, sc, 10 μg/kg, ICR mice, buprenorphine 10 μg/kg s.c., Mean
[16] = ICR, mouse, plasma, sc, 10 μg/kg, ICR mice, buprenorphine 10 μg/kg s.c., individual samples
[17] = ICR, mouse, plasma, sc, 30 μg/kg, ICR mice, buprenorphine 30 μg/kg s.c., Mean
[18] = ICR, mouse, plasma, sc, 30 μg/kg, ICR mice, buprenorphine 30 μg/kg s.c., individual samples

CO[C@]12CC[C@@]3(C[C@@H]1[C@](C)(O)C(C)(C)C)[C@H]1Cc4ccc(O)c5c4[C@@]3(CCN1CC1CC1)[C@H]2O5 [buprenorphine, 21-cyclopropyl-7-a-[(S)-1-hydroxy-1,2,2-trimethylpropyl]-6,14-endo-ethano-6,7,8,14 tetrahydrooripavine]
number of activated nerve cells (c-Fos positive cells) (nucleus accumbens (NAc); 0.003 mg/kg): significantly increased
number of activated nerve cells (c-Fos positive cells) (nucleus accumbens (NAc); 0.03 mg/kg): significantly increased
number of activated nerve cells (c-Fos positive cells) ([1]; 0.003 mg/kg): no change
number of activated nerve cells (c-Fos positive cells) ([1]; 0.03 mg/kg): significantly increased
Plasma concentration 0.5 hr [2, 3]: 6.85 pg/mL and 6.52 pg/mL
Plasma concentration 1 hr [2, 3]: 4.66 pg/mL and 5.36 pg/mL
Plasma concentration 3 hr [2, 3]: BLQ (BLQ: LLOQ (lower limit of quantitation: 2 pg/mL) or less)
Plasma concentration 12 hr [2, 3]: BLQ (BLQ: LLOQ (lower limit of quantitation: 2 pg/mL) or less)
Plasma concentration 24 hr [2, 3]: BLQ (BLQ: LLOQ (lower limit of quantitation: 2 pg/mL) or less)
Plasma concentration 0.5 hr [2, 4]: 26 pg/mL and 30.9 pg/mL
Plasma concentration 1 hr [2, 4]: 13.7 pg/mL and 16.5 pg/mL
Plasma concentration 3 hr [2, 4]: 5.08 pg/mL and 4.87 pg/mL
Plasma concentration 12 hr [2, 4]: BLQ (BLQ: LLOQ (lower limit of quantitation: 2 pg/mL) or less)
Plasma concentration 24 hr [2, 4]: BLQ (BLQ: LLOQ (lower limit of quantitation: 2 pg/mL) or less)
Cmax ([2]; ICR mice, buprenorphine 1 μg/kg s.c.): 0.067 ng/mL
Plasma concentration 0.5 hr [2, 5]: 260 pg/mL and 271 pg/mL
Plasma concentration 1 hr [2, 5]: 119 pg/mL and 127 pg/mL
Plasma concentration 3 hr [2, 5]: 47.6 pg/mL and 83.3 pg/mL
Plasma concentration 12 hr [2, 5]: 0.00358 ng/mL and 0.00346 ng/mL
Plasma concentration 24 hr [2, 5]: BLQ (BLQ: LLOQ (lower limit of quantitation: 2 pg/mL) or less)
Cmax ([2]; ICR mice, buprenorphine 10 μg/kg s.c.): 0.67 ng/mL
Plasma concentration 0.5 hr [2, 6]: 711* pg/mL and 666* pg/mL
Plasma concentration 1 hr [2, 6]: 471* pg/mL and 367* pg/mL
Plasma concentration 3 hr [2, 6]: 145 pg/mL and 135 pg/mL
Plasma concentration 12 hr [2, 6]: 0.0171 ng/mL and 0.0271 ng/mL and 0.00669 ng/mL
Plasma concentration 24 hr [2, 6]: BLQ (BLQ: LLOQ (lower limit of quantitation: 2 pg/mL) or less)
Cmax ([2]; ICR mice, buprenorphine 30 μg/kg s.c.): 2.36 ng/mL
Plasma concentration 0.5 hr [2, 7]: 2560* pg/mL and 2770* pg/mL
Plasma concentration 1 hr [2, 7]: 1480* pg/mL and 1670* pg/mL
Plasma concentration 3 hr [2, 7]: 436* pg/mL and 494* pg/mL
Plasma concentration 12 hr [2, 7]: 0.0312 ng/mL and 0.0727 ng/mL and 0.0313 ng/mL
Plasma concentration 24 hr [2, 7]: 0.00768 ng/mL and 0.0042 ng/mL
Cmax ([2]; ICR, mouse, plasma, sc, 0.1 ug/kg): 0.00778 ng/mL
concentration at 0.5 h [2, 8]: 0.00778 ng/mL
concentration at 0.5 h [2, 9]: 0.00998 ng/mL
concentration at 1 h [2, 8]: 0.00485 ng/mL
concentration at 1 h [2, 9]: 0.00452 ng/mL
concentration at 3 h [2, 8]: 0.001 ng/mL
concentration at 3 h [2, 9]: 0.00299 ng/mL
concentration at 12 h [2, 8]: 0 ng/mL
concentration at 24 h [2, 8]: 0 ng/mL
Cmax ([2]; ICR, mouse, plasma, sc, 0.3 ug/kg): 0.0266 ng/mL
concentration at 0.5 h [2, 10]: 0.0266 ng/mL
concentration at 0.5 h [2, 11]: 0.0228 ng/mL
concentration at 1 h [2, 10]: 0.0148 ng/mL
concentration at 1 h [2, 11]: 0.0143 ng/mL
concentration at 3 h [2, 10]: 0.00477 ng/mL
concentration at 3 h [2, 11]: 0.00436 ng/mL
concentration at 12 h [2, 10]: 0 ng/mL
concentration at 24 h [2, 10]: 0 ng/mL
Cmax ([2]; ICR, mouse, plasma, sc, 1 ug/kg): 0.067 ng/mL
concentration at 0.5 h [2, 12]: 0.067 ng/mL
concentration at 1 h [2, 12]: 0.025 ng/mL
concentration at 3 h [2, 12]: 0.02 ng/mL
Cmax ([2]; ICR, mouse, plasma, sc, 3 ug/kg): 0.268 ng/mL
concentration at 0.5 h [2, 13]: 0.268 ng/mL
concentration at 0.5 h [2, 14]: 0.274 ng/mL
concentration at 1 h [2, 13]: 0.126 ng/mL
concentration at 1 h [2, 14]: 0.132 ng/mL
concentration at 3 h [2, 13]: 0.0641 ng/mL
concentration at 3 h [2, 14]: 0.0613 ng/mL
concentration at 12 h [2, 13]: 0.00312 ng/mL
concentration at 12 h [2, 14]: 0.00231 ng/mL
concentration at 24 h [2, 13]: 0 ng/mL
Cmax ([2]; ICR, mouse, plasma, sc, 10 ug/kg): 0.67 ng/mL
concentration at 0.5 h [2, 15]: 0.67 ng/mL
concentration at 0.5 h [2, 16]: 0.632 ng/mL
concentration at 1 h [2, 15]: 0.399 ng/mL
concentration at 1 h [2, 16]: 0.358 ng/mL
concentration at 3 h [2, 15]: 0.147 ng/mL
concentration at 3 h [2, 16]: 0.16 ng/mL
concentration at 12 h [2, 15]: 0.017 ng/mL
concentration at 24 h [2, 15]: 0.000777 ng/mL
concentration at 24 h [2, 16]: 0.00233 ng/mL
Cmax ([2]; ICR, mouse, plasma, sc, 30 ug/kg): 2.36 ng/mL
concentration at 0.5 h [2, 17]: 2.36 ng/mL
concentration at 0.5 h [2, 18]: 1.76 ng/mL
concentration at 1 h [2, 17]: 1.49 ng/mL
concentration at 1 h [2, 18]: 1.32 ng/mL
concentration at 3 h [2, 17]: 0.447 ng/mL
concentration at 3 h [2, 18]: 0.412 ng/mL
concentration at 12 h [2, 17]: 0.0451 ng/mL
concentration at 24 h [2, 17]: 0.00551 ng/mL
concentration at 24 h [2, 18]: 0.00464 ng/mL
